Test results reported in PMC12350126, “A novel carboxamide bromodomain inhibitor attenuates osteoarthritis via epigenetic repression of NF-κB and MAPK signaling” (Frontiers in Immunology, 2025).

Experiments:
[1] = PK analysis after intravenous administration in SD rats; format: in vivo, rat; parameters: AUC: unit not given here; settings: for AUC(0-t) / Cmax / half-life: male, rat, plasma
Procedure: SD rats (male, 6 weeks old) were obtained from Orient Bio (Seoul, Korea) and housed under pathogen-free conditions. All animal procedures were conducted in accordance with the guidelines of the Animal Care Facility at Biotoxtech Co., Ltd. (Chungcheongbuk-do, Korea). NCD was administered intravenously (IV) to SD rats at doses of 5, 10, or 20 mg/kg to evaluate its pharmacokinetics. Blood samples were collected from the jugular vein at various time points, mixed with 3.8% (w/v) sodium citrate, and centrifuged at 8,000 × g for 30 min to obtain plasma. The plasma samples were then mixed with acetonitrile (33%, v/v), vortexed for 5 min, and centrifuged at 13,000 × g for 10 min. The concentration of NCD in plasma was determined using high-performance liquid chromatography (HPLC; Shimadzu, Japan) equipped with a UV detector. Pharmacokinetic parameters were calculated using Microsoft Excel ([31]).

[2] = system: IL-1β-induced Mmp3, Mmp13 and Cox2 expression in mouse articular chondrocytes; test: IL-1β-induced Mmp3, Mmp13, Cox2 expression in chondrocytes (qRT-PCR, western blotting); format: cell-based; settings: IL-1β 1 ng/mL
Procedure: NCD was supplied by Benobio Co (Gyeonggi-do, Korea), and IL‐1β was purchased from GenScript (Piscataway, NJ, USA). NCDs were dissolved in phosphate-buffered saline (PBS) for oral administration or IA injection.
Total RNA was extracted from mouse articular chondrocytes using TRIzol (Molecular Research Center Inc., Cincinnati, OH, USA) and the primers used were for the MMPs, glyceraldehyde 3-phosphate dehydrogenase (GAPDH), and Cox2. Primers utilized were as follows: mouse Mmp3 (5′-TCCTGATGTTGGTGGCTTCAG-3′ and 5′-TGTCTTGGCAAATCCGGTGTA-3′); mouse Mmp13 (5′-TGATGGACCTTCTGGTCTTCTGG-3′ and 5′-CATCCA CATGG TTGGG AAGT TCT-3′); mouse Cox2 (5′-GGTCTGGTGCCTGGTCTGATGAT-3′ and 5′-GTCCTTTCAAGGAGAATGGTGC-3′); mouse Gapdh (5′-TCACT GCCAC CCAGA AGAC-3′ and 5′-TGTAG GCCAT GAGGT CCAC-3′). Gene transcript expression levels were normalized against that of Gapdh by qRT-PCR using SYBR premix ExTaq (Takara Bio, Shiga, Japan). Results were expressed as fold-changes relative to the expression in the control group ([20]).
The total protein was extracted from the primary cultured chondrocytes using a lysis buffer, containing 150 mM NaCl, 1% NP-40, 50 mM Tris/HCl (pH 8.0), 0.2% sodium dodecyl sulfate, and 5 mM NaF, supplemented with protease and phosphatase inhibitor mixture (Roche, Madison, WI, USA). Proteins were separated using sodium dodecyl sulfate-polyacrylamide gel electrophoresis, and western blot analysis was performed using the following antibodies: goat anti‐Cox2 (sc‐1745; Santa Cruz Biotechnology, Dallas, TX, USA), mouse anti-Erk1/2 (610408; Becton Dickinson, NJ, USA), mouse anti-IκB [9242; Cell Signaling Technology (CST), MA, USA], mouse anti-p65 (8242; CST), mouse anti-phospho-p65 (3033; CST), mouse anti-p38 (#9212; CST), mouse anti-pp38 (#9215S; CST), mouse anti-c-Jun N-terminal kinase (Jnk) (#9252S; CST), mouse anti-pJnk (#9251S; CST), and mouse anti-pErk (#9101S; CST). Each signal was visualized using a SuperSignal West Dura Kit (Thermo Fisher Scientific, Waltham, MA, USA). Density analysis (AlphaEase FC 4.0; Alpha Innotech, CA, USA) was performed to calculate the relevant band intensities. Extracellular signal-regulated kinase (Erk) was used as the loading control ([28]).

[3] = target: T1, BRD2 BD2 (Homo sapiens, UniProt P25440); test: Biosensor binding kinetics assay (Octet), BRD2 BD2
T1 construct: biotinylated BRD2 BD1, BRD2 BD2; biotin (biotinylated protein); made in house; host or cells: Escherichia coli BL21(DE3)
T1 sequence (P25440 344-453 limits assumed): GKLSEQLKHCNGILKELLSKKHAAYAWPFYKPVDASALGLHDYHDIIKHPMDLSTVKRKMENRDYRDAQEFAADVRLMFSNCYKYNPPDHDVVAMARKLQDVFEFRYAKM
Procedure: Binding kinetics were assessed using the Octet® R2 system (Sartorius, Göttingen, Germany). Superstreptavidin biosensors were loaded with biotinylated BRD2 BD1, BRD2 BD2, BRD3 BD1, BRD3 BD2, BRD4 BD1, BRD4 BD2, or biotin alone (as a negative control) in PBST buffer (phosphate-buffered saline containing 0.02% Tween 20 and 5% DMSO). The sensors were then dipped into compound solutions for 10 min. To evaluate association kinetics (kon), each sensor was exposed to serial dilutions of the protein for 180 s, followed by dipping them into PBST buffer to assess dissociation kinetics (koff). For control, a separate sensor loaded with the compound was dipped into PBST alone. Competition binding assays were performed by exposing the compound-loaded sensor to mixtures of proteins and test compounds.

[4] = NCD 10, 50, 100 µM, 12 h, qRT-PCR

CNC(=O)CC1C(=O)NCCN1Cc1ccc(-c2ccccc2-c2cccc3c2CN(C)C3=O)o1 (stereo not shown) [NCD, N-methyl-2-(1-((5-(2-(2-methyl-1-oxoisoindolin-4-yl)phenyl)furan-2-yl)methyl)-3-oxopiperazin-2-yl)acetamide]
AUC ([1]; 5 mg/kg): 631.83 | AUC ([1]; 20 mg/kg): 4526.66 | AUC(0-t) ([1]; 5 mg/kg): 632 ng·h/mL | Cmax ([1]; 5 mg/kg): 1110 ng/mL | half-life ([1]; 5 mg/kg): 24.6 min | AUC(0-t) ([1]; 10 mg/kg): 1730 ng·h/mL | Cmax ([1]; 10 mg/kg): 2560 ng/mL | half-life ([1]; 10 mg/kg): 35.4 min | AUC(0-t) ([1]; 20 mg/kg): 4530 ng·h/mL | Cmax ([1]; 20 mg/kg): 4150 ng/mL | half-life ([1]; 20 mg/kg): 45.6 min | Cox2 mRNA expression [2, 4]: marked, concentration-dependent suppression | Mmp3 mRNA expression [2, 4]: marked, concentration-dependent suppression | Mmp13 mRNA expression [2, 4]: marked, concentration-dependent suppression | mRNA and protein levels of Cox2 ([2]; NCD 50 and 100 µM): substantially reduced | Kd [3]: 104 nM
